Reference: patent US20140378472A1, “AMORPHOUS VILAZODONE HYDROCHLORIDE, A PROCESS FOR ITS PREPARATION AND PHARMACEUTICAL COMPOSITIONS THEREOF” (RANBAXY LABORATORIES LIMITED, priority 2011, published 2014)

Test: storage stability of the amorphous form, followed by XRPD
Format: physicochemical
Conditions: storage at 25° C. and 52% relative humidity (RH) for 24 days; XRPD pattern similar to FIG. 5 (sample of Example 3)
Method: XRPD of the samples were determined by using a Panalytical X'Pert Pro X-Ray Powder Diffractometer in the range 3-40 degree 2 theta and under a tube voltage and current of 45 Kv and 40 mA, respectively. Copper radiation of wavelength 1.54 angstrom and Xceletor detector was used.

Cl.N#Cc1ccc2[nH]cc(CCCCN3CCN(c4ccc5oc(C(N)=O)cc5c4)CC3)c2c1 [amorphous vilazodone hydrochloride, 5-{4-[4-(5-cyano-1H-indo1-3-yl)butyl]piperazin-1-yl}-1-benzofuran-2-carboxamide hydrochloride]
polymorphic stability on storage (XRPD): stable and does not convert to any other polymorphic form
